Where two headings read alike, the source gives them in different places.
Key:
[1] = tested on: patients with reported LVH and no reported hypertension; format: in vivo
[2] = tested on: patients with type 2 diabetes mellitus, chronic kidney disease, and risks for cardiovascular disease; format: in vivo
Protocol: A multicenter, double-blind clinical trial (SCORED) was conducted in which patients with type 2 diabetes mellitus (glycated hemoglobin level, ≥7%), chronic kidney disease (estimated glomerular filtration rate, 25 to 60 ml per minute per 1.73 m^2 of body-surface area), and risks for cardiovascular disease were randomly assigned in a 1:1 ratio to receive sotagliflozin or placebo. The primary end point was changed during the trial to the composite of the total number of deaths from cardiovascular causes, hospitalizations for heart failure, and urgent visits for heart failure.
Randomization was stratified according to criteria for heart failure (ejection fraction of ≤40% documented within the past year or hospitalization for heart failure during the previous 2 years) and geographic region (North America, Latin America, western Europe, eastern Europe, or rest of the world).
Persons 18 years of age or older with type 2 diabetes mellitus with a glycated hemoglobin level of 7% or higher, chronic kidney disease (eGFR, 25 to 60 ml per minute per 1.73 m^2 of body-surface area), and additional cardiovascular risk factors were enrolled. The risk factors consisted of at least one major cardiovascular risk factor in those 18 years of age or older or at least two minor cardiovascular risk factors in those 55 years of age or older. One exclusion criterion was any plan to start an SGLT2 inhibitor during the trial. Written informed consent was obtained from all the patients.
The original coprimary end points, assessed in time-to-event analyses, were the first occurrence of a major adverse cardiovascular event (MACE, defined as death from cardiovascular causes, non-fatal myocardial infarction, or nonfatal stroke) and the first occurrence of death from cardiovascular causes or hospitalization for heart failure (HHF). The primary end point was the total number of deaths from cardiovascular causes, hospitalizations for heart failure, and urgent visits for heart failure (UVHF).
The secondary end points were the total number of hospitalizations for heart failure and urgent visits for heart failure; deaths from cardiovascular causes; the total number of deaths from cardiovascular causes, hospitalizations for heart failure, nonfatal myocardial infarctions, and nonfatal strokes; the total number of deaths from cardiovascular causes, hospitalizations for heart failure, urgent visits for heart failure, and events of heart failure during hospitalization; the first occurrence of the composite of a sustained decrease of at least 50% in the eGFR from baseline for at least 30 days, long-term dialysis, renal trans-plantation, or a sustained eGFR of less than 15 ml per minute per 1.73 m^2 for at least 30 days; deaths from any cause; and the total number of deaths from cardiovascular causes, nonfatal myocardial infarctions, and nonfatal strokes. The use of total events allowed for a single patient to have more than one event contributing to the analysis. Subgroup analyses were prespecified.
All efficacy analyses followed the intention-to-treat principle. To allow for analyses of total events, competing-risk marginal models for recurrent events that were stratified according to heart-failure criteria and geographic region, with deaths not included in a given end point treated as competing terminal events, were applied to generate hazard ratios with Wald 95% confidence intervals and P values. Proportionality was confirmed by interaction terms between trial-group assignment and the logarithm of time. Event rates were summarized by the number of events per 100 patient-years of follow-up, and accrual of events over time was summarized by cumulative incidence functions.
Total events of myocardial infarction and total events of stroke were evaluated post hoc. Testing for differences between the two groups in adverse events was performed post hoc; P values were obtained from Pearson chi-square tests. […]

[3] = reported LVH and no reported hypertension, N = 217
[4] = reported LVH and no reported hypertension, sotagliflozin vs placebo
[5] = SCORED overall, sotagliflozin vs placebo
[6] = SCORED overall, sotagliflozin vs placebo, listed as sotagliflozin

## CCOc1ccc(Cc2cc([C@@H]3O[C@H](SC)[C@@H](O)[C@H](O)[C@H]3O)ccc2Cl)cc1 [Sotagliflozin, (2S,3R,4R,5S,6R)-2-(4-chloro-3-(4-ethoxybenzyl)phenyl)-6-(methylthio) tetrahydro-2H-pyran-3,4,5-triol]
[1]; FIG. 1, in words
  effect on the SCORED study's primary endpoint in the presence or absence of reported LVH or hypertension at baseline: consistent
[1]; human, in vivo
  Acute Kidney Injury, count: 6
  Acute Kidney Injury, figure in brackets: 2.8
  Any Malignancies of Special Interest, count: 4
  Any Malignancies of Special Interest, figure in brackets: 1.8
  Bone Fractures, count: 7
  Bone Fractures, figure in brackets: 3.2
  Diabetic Ketoacidosis, count: 1
  Diabetic Ketoacidosis, figure in brackets: 0.5
  Diarrhea, count: 19
  Diarrhea, figure in brackets: 8.8
  Genital Mycotic Infections, count: 2
  Genital Mycotic Infections, figure in brackets: 0.9
  Pancreatitis, count: 1
  Pancreatitis, figure in brackets: 0.5
  Severe Hypoglycemia, count: 2
  Severe Hypoglycemia, figure in brackets: 0.9
  Urinary Tract Infections, count: 20
  Urinary Tract Infections, figure in brackets: 9.2
  Venous Thrombotic Events, count: 3
  Venous Thrombotic Events, figure in brackets: 1.4
  Volume Depletion, count: 10
  Volume Depletion, figure in brackets: 4.6
[1]; in words
  hazard ratio in patients with LVH without hypertension compared with the general population of patients at risk of cardiovascular events: markedly lower
  risk of CV events in patients with reported LVH and no reported hypertension: significantly reduced
[1]; [3]
  3-point MACE + HHF, event rate: 5.5 Events per 100 patient-years
  3-point MACE, event rate: 3.1 Events per 100 patient-years
[1]; [4]
  3-point MACE + HHF: Hazard Ratio (95% CI): 0.46 (0.21, 0.99)
  3-point MACE: Hazard Ratio (95% CI): 0.52 (0.21, 1.28)
[2]; SCORED overall
  total hospitalizations: 1923
  total patient-years spanned by hospitalizations: 104 patient-years
[2]; SCORED overall, N = 5292
  Deaths from any cause, event rate: 3.5 Events/100 patient-years
  Deaths from any cause, number of events: 246 number of events
  Deaths from cardiovascular causes, event rate: 2.2 Events/100 patient-years
  Deaths from cardiovascular causes, number of events: 155 number of events
  First occurrence of a sustained decrease of ≥50% in the eGFR from baseline for ≥30 days, long-term dialysis, renal transplantation, or sustained eGFR of <15 ml/min/1.73 m^2 for ≥30 days, event rate: 0.5 Events/100 patient-years
  First occurrence of the composite renal end point (sustained ≥50% eGFR decrease, long-term dialysis, renal transplantation, or sustained eGFR <15), number of events: 37 number of events
  Primary end point: total no. of deaths from cardiovascular causes, hospitalizations for HF, and urgent visits for HF, event rate: 5.6 Events/100 patient-years
  Primary end point: total no. of deaths from cardiovascular causes, hospitalizations for HF, and urgent visits for HF, number of events: 400 number of events
  Total no. of deaths from cardiovascular causes, hospitalizations for HF, nonfatal myocardial infarctions, and nonfatal strokes, event rate: 7.6 Events/100 patient-years
  Total no. of deaths from cardiovascular causes, hospitalizations for HF, nonfatal myocardial infarctions, and nonfatal strokes, number of events: 541 number of events
  Total no. of deaths from cardiovascular causes, hospitalizations for HF, urgent visits for HF, and events of HF during hospitalization, event rate: 6.4 Events/100 patient-years
  Total no. of deaths from cardiovascular causes, hospitalizations for HF, urgent visits for HF, and events of HF during hospitalization, number of events: 453 number of events
  Total no. of deaths from cardiovascular causes, nonfatal myocardial infarctions, and nonfatal strokes, event rate: 4.8 Events/100 patient-years
  Total no. of deaths from cardiovascular causes, nonfatal myocardial infarctions, and nonfatal strokes, number of events: 343 number of events
  Total no. of hospitalizations for HF and urgent visits for HF, event rate: 3.5 Events/100 patient-years
  Total no. of hospitalizations for HF and urgent visits for HF, number of events: 245 number of events
[2]; SCORED overall, in words
  composite renal end point, compared with placebo: did not differ significantly
  risk of the composite of deaths from cardiovascular causes, hospitalizations for heart failure, and urgent visits for heart failure, compared with placebo: lower risk
[2]; [5]
  Deaths from any cause: Hazard Ratio (95% CI): 0.99 (0.83-1.18)
  Deaths from cardiovascular causes: Hazard Ratio (95% CI): 0.90 (0.73-1.12)
  First occurrence of the composite renal end point: Hazard Ratio (95% CI): 0.71 (0.46-1.08)
  Original coprimary end point, first occurrence of death from cardiovascular causes or hospitalization for heart failure: hazard ratio: 0.77
  Original coprimary end point, first occurrence of death from cardiovascular causes, nonfatal myocardial infarction, or nonfatal stroke: hazard ratio: 0.84
  Primary end point: Hazard Ratio (95% CI): 0.74 (0.63-0.88)
  Total no. of deaths from cardiovascular causes, hospitalizations for HF, nonfatal myocardial infarctions, and nonfatal strokes: Hazard Ratio (95% CI): 0.72 (0.63-0.83)
  Total no. of deaths from cardiovascular causes, hospitalizations for HF, urgent visits for HF, and events of HF during hospitalization: Hazard Ratio (95% CI): 0.76 (0.64-0.89)
  Total no. of deaths from cardiovascular causes, nonfatal myocardial infarctions, and nonfatal strokes: Hazard Ratio (95% CI): 0.77 (0.65-0.91)
  Total no. of hospitalizations for HF and urgent visits for HF: Hazard Ratio (95% CI): 0.67 (0.55-0.82)
[2]; [6]
  Deaths from cardiovascular causes: Hazard Ratio (95% CI): 0.90
  Primary end point: Hazard Ratio (95% CI): 0.74
  Total no. of hospitalizations for HF and urgent visits for HF: Hazard Ratio (95% CI): 0.67
[2]; human, in vivo
  acute kidney injury, percentage of patients: 2.2%
  diabetic ketoacidosis, percentage of patients: 0.6%
  diarrhea, percentage of patients: 8.5%
  genital mycotic infections, percentage of patients: 2.4%
  percentage of patients in whom hypertension developed: 2.6%
  percentage of patients in whom hypotension developed: 2.6%
  percentage of patients with a serious adverse event: 23.4%
  volume depletion, percentage of patients: 5.3%
[2]; in vivo
  Diarrhea, genital mycotic infections, volume depletion, and diabetic ketoacidosis, frequency compared with placebo: more common
  bone fractures, urinary tract infections, severe hypoglycemia, acute kidney injury, or amputations, compared with placebo: no significant between-group differences
  percentage of patients with adverse events that occurred or worsened during the treatment period or with events leading to withdrawal of the trial regimen, compared with placebo: no significant differences
